Assay results from the NIST ThermoML archive (doi:10.1021/je060271a).

Details: 323.15 K, Liquid, Vibrating tube method

CCCCC(=O)OCC(COC(=O)CCCC)(COC(=O)CCCC)COC(=O)CCCC [pentaerythritol tetrapentanoate]
Details | mass density [kg/m3]
5507 kPa | 998.5
5515.1 kPa | 998.5
5521.3 kPa | 998.4
5527 kPa | 998.5
5546.7 kPa | 998.6
5564 kPa | 998.6
5581.9 kPa | 998.5
5599.5 kPa | 998.6
5620.8 kPa | 998.5
5638.1 kPa | 998.7
5660 kPa | 998.6
5678.2 kPa | 998.6
5695.6 kPa | 998.6
5714.3 kPa | 998.7
5736.6 kPa | 998.6
5755.1 kPa | 998.7
5774.3 kPa | 998.6
5797.1 kPa | 998.8
5816.3 kPa | 998.9
5836 kPa | 998.8
5854.9 kPa | 998.8
5878.6 kPa | 998.8
5898.5 kPa | 998.8
5917.1 kPa | 998.8
5937.2 kPa | 998.9
5961 kPa | 998.8
5982 kPa | 998.9
6002.4 kPa | 998.9
6023.3 kPa | 998.8
6048 kPa | 998.8
6068.6 kPa | 999
6091.7 kPa | 998.8
6114.3 kPa | 999
6135.5 kPa | 998.8
6162.7 kPa | 998.9
6183.1 kPa | 998.9
6205.3 kPa | 999
6226.8 kPa | 999.1
6253.6 kPa | 999.1
6278.3 kPa | 999
6299 kPa | 999
6322 kPa | 999.1
6349.8 kPa | 999.1
6371.6 kPa | 999.1
6395.8 kPa | 999.1
6420.4 kPa | 999
6446 kPa | 999.2
6472.8 kPa | 999.2
6495.8 kPa | 999.3
6521.7 kPa | 999.2
6549.3 kPa | 999.2
6572.1 kPa | 999.2
6596.7 kPa | 999.3
6622.6 kPa | 999.3
6652.8 kPa | 999.2
6676.5 kPa | 999.3
6703.4 kPa | 999.2
6735.7 kPa | 999.4
6761.8 kPa | 999.4
6788.6 kPa | 999.5
6816.1 kPa | 999.4
6841.8 kPa | 999.4
6873.6 kPa | 999.5
6900.5 kPa | 999.4
6928.9 kPa | 999.6
6961.3 kPa | 999.6
6989.5 kPa | 999.5
7017 kPa | 999.6
7044.4 kPa | 999.4
7079.5 kPa | 999.6
7110.4 kPa | 999.7
7137.5 kPa | 999.7
7169.3 kPa | 999.6
7204.5 kPa | 999.8
7233.8 kPa | 999.7
7265.1 kPa | 999.7
7295.5 kPa | 999.8
7332.3 kPa | 999.8
7362 kPa | 999.7
7393.2 kPa | 999.8
7425.1 kPa | 999.9
7462.4 kPa | 999.8
7497 kPa | 1000
7529.6 kPa | 999.9
7562.2 kPa | 999.9
7602.1 kPa | 1000
7634.4 kPa | 999.9
7668.9 kPa | 1000
7702.7 kPa | 1000
7742.2 kPa | 1000
7778.3 kPa | 1000.1
7818.5 kPa | 1000.1
7854.9 kPa | 1000.1
7890.7 kPa | 1000.1
8008.7 kPa | 1000.2
8045.6 kPa | 1000.3
8085.8 kPa | 1000.3
8132.2 kPa | 1000.2
8166 kPa | 1000.4
8197.3 kPa | 1000.4
8234.5 kPa | 1000.4
8265.2 kPa | 1000.4
8297.6 kPa | 1000.5
8334.6 kPa | 1000.5
8366.3 kPa | 1000.6
8398.2 kPa | 1000.5
8437.2 kPa | 1000.5
8471.2 kPa | 1000.5
8502.6 kPa | 1000.5
8536.2 kPa | 1000.6
8575.9 kPa | 1000.5
8609.5 kPa | 1000.6
8644.9 kPa | 1000.7
8686.6 kPa | 1000.7
8721.6 kPa | 1000.7
8763.3 kPa | 1000.7
8798.5 kPa | 1000.8
8835.2 kPa | 1000.8
8871.2 kPa | 1000.7
8918.5 kPa | 1000.9
8948.2 kPa | 1000.9
8992.3 kPa | 1000.9
9029 kPa | 1000.9
9074.5 kPa | 1000.9
9112.8 kPa | 1001
9150.4 kPa | 1001.1
9188.8 kPa | 1001.1
9235.3 kPa | 1001
9275.3 kPa | 1001.2
9315.5 kPa | 1001.1
9364.1 kPa | 1001.1
9405.6 kPa | 1001.2
9494 kPa | 1001.2
9537.2 kPa | 1001.2
9589.3 kPa | 1001.2
9624.3 kPa | 1001.3
9656.6 kPa | 1001.3
9695.6 kPa | 1001.3
9727.6 kPa | 1001.5
9873 kPa | 1001.5
9976.5 kPa | 1001.6
10018 kPa | 1001.6
10129 kPa | 1001.8
10165 kPa | 1001.7
10208 kPa | 1001.8
10280 kPa | 1001.7
10325 kPa | 1001.8
10362 kPa | 1001.9
10400 kPa | 1001.9
10447 kPa | 1001.9
10486 kPa | 1001.9
10527 kPa | 1002
10577 kPa | 1001.8
10620 kPa | 1002.1
10661 kPa | 1002
10691 kPa | 1002.1
10711 kPa | 1002.1
10731 kPa | 1002.2
10755 kPa | 1002.1
10775 kPa | 1002
10795 kPa | 1002.1
10820 kPa | 1002.2
10840 kPa | 1002.2
10860 kPa | 1002.2
10885 kPa | 1002.2
10905 kPa | 1002.2
10926 kPa | 1002.2
10951 kPa | 1002.2
10971 kPa | 1002.3
10992 kPa | 1002.2
11018 kPa | 1002.3
11039 kPa | 1002.2
11060 kPa | 1002.4
11085 kPa | 1002.4
11106 kPa | 1002.3
11128 kPa | 1002.4
11153 kPa | 1002.4
11175 kPa | 1002.3
11197 kPa | 1002.4
11223 kPa | 1002.5
11245 kPa | 1002.5
11267 kPa | 1002.4
11289 kPa | 1002.5
11316 kPa | 1002.5
11339 kPa | 1002.5
11366 kPa | 1002.7
11388 kPa | 1002.6
11411 kPa | 1002.6
11434 kPa | 1002.6
11461 kPa | 1002.6
11484 kPa | 1002.6
11534 kPa | 1002.6
11558 kPa | 1002.6
11581 kPa | 1002.6
11610 kPa | 1002.5
11633 kPa | 1002.7
11657 kPa | 1002.6
11681 kPa | 1002.7
11710 kPa | 1002.7
11735 kPa | 1002.8
11759 kPa | 1002.7
11784 kPa | 1002.8
11813 kPa | 1002.8
11838 kPa | 1002.8
11862 kPa | 1002.9
11892 kPa | 1002.9
11917 kPa | 1003
11942 kPa | 1002.8
11971 kPa | 1003
11996 kPa | 1003
12022 kPa | 1002.9
12053 kPa | 1003
12074 kPa | 1003.1
12105 kPa | 1003
12130 kPa | 1003
12156 kPa | 1003
12187 kPa | 1003
12213 kPa | 1003.1
12244 kPa | 1003.1
12271 kPa | 1003.1
12297 kPa | 1003.2
12324 kPa | 1003.2
12355 kPa | 1003.2
12382 kPa | 1003.4
12415 kPa | 1003.3
12442 kPa | 1003.1
12469 kPa | 1003.2
12502 kPa | 1003.3
12529 kPa | 1003.4
12557 kPa | 1003.4
12585 kPa | 1003.4
12618 kPa | 1003.2
12646 kPa | 1003.4
12674 kPa | 1003.4
12736 kPa | 1003.4
12770 kPa | 1003.5
12800 kPa | 1003.3
12828 kPa | 1003.6
12858 kPa | 1003.5
12892 kPa | 1003.5
12922 kPa | 1003.7
12957 kPa | 1003.7
12986 kPa | 1003.6
13016 kPa | 1003.7
13052 kPa | 1003.6
13082 kPa | 1003.6
13112 kPa | 1003.7
13149 kPa | 1003.7
13179 kPa | 1003.7
13210 kPa | 1003.7
13242 kPa | 1003.9
13279 kPa | 1003.8
13310 kPa | 1003.9
13347 kPa | 1003.9
13378 kPa | 1003.7
13410 kPa | 1003.9
13443 kPa | 1004
13482 kPa | 1003.9
13514 kPa | 1004
13548 kPa | 1004
13581 kPa | 1004
13620 kPa | 1004
13654 kPa | 1004
13687 kPa | 1004.2
13727 kPa | 1004
13760 kPa | 1004.1
13794 kPa | 1004.2
13829 kPa | 1004.2
13870 kPa | 1004.3
13945 kPa | 1004.2
13980 kPa | 1004.2
14049 kPa | 1004.4
14091 kPa | 1004.3
14126 kPa | 1004.4
14162 kPa | 1004.3
14284 kPa | 1004.4
14320 kPa | 1004.4
14358 kPa | 1004.5
14402 kPa | 1004.5
14440 kPa | 1004.6
14477 kPa | 1004.6
14515 kPa | 1004.6
14560 kPa | 1004.7
14600 kPa | 1004.6
14639 kPa | 1004.7
14678 kPa | 1004.6
14717 kPa | 1004.7
14764 kPa | 1004.7
14803 kPa | 1004.7
14843 kPa | 1004.8
14891 kPa | 1004.9
14931 kPa | 1004.9
14972 kPa | 1005
15020 kPa | 1004.9
15062 kPa | 1004.9
15103 kPa | 1005
15147 kPa | 1005
15192 kPa | 1005.1
15243 kPa | 1005.1
15287 kPa | 1005.1
15332 kPa | 1005.1
15386 kPa | 1005.2
15429 kPa | 1005.1
15462 kPa | 1005.2
15497 kPa | 1005.2
15526 kPa | 1005.2
15556 kPa | 1005.3
15585 kPa | 1005.3
15621 kPa | 1005.2
15652 kPa | 1005.4
15685 kPa | 1005.4
15723 kPa | 1005.4
15754 kPa | 1005.5
15779 kPa | 1005.4
15803 kPa | 1005.4
15822 kPa | 1005.5
15842 kPa | 1005.5
15865 kPa | 1005.6
15885 kPa | 1005.5
15904 kPa | 1005.6
